Values of other authors in patent US11633409B2, “Solid preparation comprising dutasteride and method for preparing same” (JW PHARMACEUTICAL CORPORATION, priority 2017, dated 2023).
Where two headings read alike, the source gives them in different places.

Experiments:
[1] = not given; remark: listed apart in the source

equilibrium solubility (in Capmul MCM NF): 2.75 g/100 g
equilibrium solubility (in PEG 400): 0.39 g/100 g
equilibrium solubility (in Transcutol): 2.41 g/100 g
equilibrium solubility (in ethanol): 4.40 g/100 g
equilibrium solubility (in isopropanol): 3.06 g/100 g
equilibrium solubility (in propylene glycol): 1.34 g/100 g
solubility in water [1]: insoluble in water
Structure (SMILES): C[C@]12C=CC(=O)NC1CCC1C2CC[C@@]2(C)C1CC[C@@H]2C(=O)Nc1cc(C(F)(F)F)ccc1C(F)(F)F (stereo partly shown) [dutasteride, Dutasteride]
